For orientation: MFC means the smallest concentration meeting the test's criterion for killing the fungus. Usually GI50 stands for the concentration giving 50% growth inhibition. The low end stands for greater sensitivity of the cells, the high end for lower sensitivity of the cells.

We go through two compounds from paper PMC7824033, “Flavones, Flavonols, and Glycosylated Derivatives—Impact on Candida albicans Growth and Virulence, Expression of CDR1 and ERG11, Cytotoxicity” (Pharmaceuticals, 2020).

One data set has as its system C. albicans 13/15. Description: Microdilution assay, MIC and MFC. It is filed as cell-based. The conditions noted are these: Candida albicans, C. albicans 13/15, mean ± SD of three replicates; for MFC: read-out: MFC; for MIC: read-out: MIC. On the technique in general: Broth dilution looks for growth in wells or tubes with falling amounts of substance.
A further data set concerns C. albicans 475/15. Kind of data set: Microdilution assay, MIC and MFC. It is filed as cell-based. The conditions noted are these: Candida albicans, C. albicans 475/15, mean ± SD of three replicates; for MFC: read-out: MFC; for MIC: read-out: MIC.
A further data set deals with C. albicans 10/15. Description: Microdilution assay, MIC and MFC. Format: cell-based. Particulars: Candida albicans, C. albicans 10/15, mean ± SD of three replicates; for MFC: read-out: MFC; for MIC: read-out: MIC.
For a further data set, the system named is C. albicans 527/14. Description: Microdilution assay, MIC and MFC. Format: cell-based. The conditions noted are these: Candida albicans, C. albicans 527/14, mean ± SD of three replicates; for MFC: read-out: MFC; for MIC: read-out: MIC.
The subject of data set [1] is C. albicans 475/15 hyphal growth. Kind of data set: Anti-hyphal forming activity. It is filed as cell-based, Candida albicans. The conditions noted are these: MIC, 4 h, YPD + 10% FBS. The procedure: C. albicans 475/15 cells were incubated with MIC of tested compounds in YPD + 10% FBS, at 37 °C, for 4 h. Cells were examined under microscope (Nikon Eclipse TS2, Amsterdam, Netherland) and number of cells, growing in the yeast or hyphal and germ tube formations, was determined. Assay was performed in triplicate and percentage of hyphae was determined.

A further data set deals with Candida albicans. Description: Microdilution assay, MIC (strain not named). It is filed as cell-based. The conditions noted are these: C. albicans, this study, strain not given, read-out: minimum inhibitory concentration (MIC). The source says: C. albicans was isolated from oral cavities of patients at ENT Clinic, Clinical Hospital Centre Zvezdara, Belgrade, Serbia after obtaining informed written consent and identified by using CHROMagar plates (Biomerieux, Craponne, France). Strains were maintained on Sabouraud Dextrose Agar (Merck, Darmstadt, Germany) and are deposited at the Mycological Laboratory, Department of Plant Physiology, Institute for Biological Research “Siniša Stanković”, National Institute of Republic of Serbia, University of Belgrade. The collection of samples was approved by the Ethical Committee (Office for Human Research Protection, Zvezdara University Medical Center, Belgrade, Serbia, document issued 26 October 2016).
Microdilution assay with some modification was used for determination of minimum inhibitory (MIC) and minimum fungicidal concentrations (MFC). Yeast cultures were adjusted to 1.0 × 10^5 CFU/per well with sterile PBS (Phosphate buffered saline, pH 7.4). The 96-well microtiter plates with serially diluted flavonoids (concentration range 0.3–75 µg/mL) in liquid broth were incubated at 37 °C for 24 h. After incubation, MIC and MFC were determined. The lowest concentrations that were not inducing microscopically observed growth were considered as MIC. For microscopic determination of growth, we used inverted microscope Nikon Eclipse TS2 (Amsterdam, Netherland) and examined the fungal growth in the wells of 96-well microtiter plates compared to the control (untreated yeast cells). MFC values were determined as concentrations without visible growth after serial sub-cultivation of 10 µL of samples at 37 °C for 24 h. Ketoconazole and amphotericin B (SigmaAldrich, Darmstadt, Germany) were used as an antifungal control. The tested flavonoids were obtained from Extrasynthese, Rhone, France.

The subject of another data set is C. albicans. Particulars: cited from earlier work.
The nature of another data set: in vitro. Particulars: pig.
In a further data set the test system is C. albicans biofilm. Particulars: cited from earlier work.

≈ marks a conversion by molar mass, not a printed value. Like-named read-outs stand apart in the source and are kept apart here.

As to `O=c1c(O[C@@H]2O[C@H](CO)[C@@H](O)[C@H](O)[C@H]2O)c(-c2ccc(O)c(O)c2)oc2cc(O)cc(O)c12` [Isoquercitrin, isoquercitrin], the MFC with C. albicans 13/15, in the data set with C. albicans 475/15, with C. albicans 10/15 and in the data set on C. albicans 527/14 was 75 ± 2 µg/mL (≈ 162 µM) in each case. Moreover, the MIC in the data set on C. albicans 13/15 was 37.5 ± 2 µg/mL (≈ 80.8 µM); with C. albicans 475/15, 37.5 ± 1 µg/mL (≈ 80.8 µM); in the data set with C. albicans 10/15, 37.5 ± 2 µg/mL (≈ 80.8 µM); in the data set with C. albicans 527/14 it was 37.5 ± 1 µg/mL (≈ 80.8 µM); in the data set with Candida albicans it was 37.5 µg/mL (≈ 80.8 µM); in the data set on C. albicans (C. albicans ATCC 90028), 2.5 µg/mL (≈ 5.38 µM). For the same compound, the “reduction of hyphal growth (words)” value in data set [1] is on record as “efficient in reduction of hyphal growth”; in data set [1] (listed as isoquercitrin) it was “reduced”. Further, in the data set “in vitro”, the GI50 is greater than 400 µg/mL. In the data set with C. albicans biofilm (ref 19), the “concentration with antibiofilm potential” value was 200 µg/mL.

As for `O=c1c(O)c(-c2ccc(O)c(O)c2)oc2cc(O)cc(O)c12` [Quercetin, quercetin], the MFC in the data set on C. albicans 13/15 worked out at 150 ± 20 µg/mL (≈ 496 µM); with C. albicans 475/15, 150 ± 10 µg/mL (≈ 496 µM); in the data set with C. albicans 10/15, 150 ± 20 µg/mL (≈ 496 µM); in the data set with C. albicans 527/14, 150 ± 10 µg/mL (≈ 496 µM). Further, the MIC in the data set with C. albicans 13/15 is 75 ± 10 µg/mL (≈ 248 µM); in the data set with C. albicans 475/15, 75 ± 2 µg/mL (≈ 248 µM); with C. albicans 10/15, 75 ± 3 µg/mL (≈ 248 µM); in the data set on C. albicans 527/14 it was 75 ± 2 µg/mL (≈ 248 µM); with Candida albicans, 75 µg/mL (≈ 248 µM); in the data set with C. albicans (C. albicans ATCC 10231, ref 16) it was 8 µg/mL (≈ 26.5 µM). The MIC was 100 µg/mL (≈ 331 µM) in the data set with C. albicans (C. albicans ATCC 10231, ref 17); greater than 83 µg/mL in the data set with C. albicans (clinical isolates and C. albicans 10231); 128 to 512 µg/mL in the data set on C. albicans (clinical isolates and reference strains ATCC 10231 and SC5314). In data set [1], the “reduction of hyphal growth (words)” value was “only slight inhibition”. Also, the concentration for 50% growth inhibition (GI50) in “in vitro” is greater than 400 µg/mL. Also, in the data set on C. albicans biofilm (625 µg/mL, C. albicans ATCC 90028), the “activity against preformed 24-h-old biofilms” value was “inactive”. Also, the “SMIC (sessile cells MIC)” value with C. albicans biofilm (C. albicans ATCC 10231, SC 5314 and clinical isolates) is reported as no less than 1024 µg/mL; in the data set with C. albicans biofilm (oral and reference isolates SC5314 and 3153A), greater than 200 µg/mL. The “concentration that prevented biofilm establishment” value in the data set on C. albicans biofilm (C. albicans NBC099) was 200 µg/mL.
